Assay results published in patent US20260356819A1, “OXOISOINDOLINYL-SUBSTITUTED […] DERIVATIVE AND USE THEREOF” (GLUETACS THERAPEUTICS (SHANGHAI) CO., LTD., priority 2023, published 2026).

How the values were obtained:
Format in all cases: cell-based
Conditions in all cases: compounds at 50 nM and 500 nM
WEE1 = target: T1, WEE1 (Homo sapiens, UniProt P30291+Q96SW2); assay: Western blot degradation of WEE1 in hPBMCs (24 h)
T1 construct: The supernatant was aspirated as the extracted total cell protein; endogenous in cells; host or cells: human peripheral blood mononuclear cells (hPBMCs)
T1 sequence (P30291 whole entry): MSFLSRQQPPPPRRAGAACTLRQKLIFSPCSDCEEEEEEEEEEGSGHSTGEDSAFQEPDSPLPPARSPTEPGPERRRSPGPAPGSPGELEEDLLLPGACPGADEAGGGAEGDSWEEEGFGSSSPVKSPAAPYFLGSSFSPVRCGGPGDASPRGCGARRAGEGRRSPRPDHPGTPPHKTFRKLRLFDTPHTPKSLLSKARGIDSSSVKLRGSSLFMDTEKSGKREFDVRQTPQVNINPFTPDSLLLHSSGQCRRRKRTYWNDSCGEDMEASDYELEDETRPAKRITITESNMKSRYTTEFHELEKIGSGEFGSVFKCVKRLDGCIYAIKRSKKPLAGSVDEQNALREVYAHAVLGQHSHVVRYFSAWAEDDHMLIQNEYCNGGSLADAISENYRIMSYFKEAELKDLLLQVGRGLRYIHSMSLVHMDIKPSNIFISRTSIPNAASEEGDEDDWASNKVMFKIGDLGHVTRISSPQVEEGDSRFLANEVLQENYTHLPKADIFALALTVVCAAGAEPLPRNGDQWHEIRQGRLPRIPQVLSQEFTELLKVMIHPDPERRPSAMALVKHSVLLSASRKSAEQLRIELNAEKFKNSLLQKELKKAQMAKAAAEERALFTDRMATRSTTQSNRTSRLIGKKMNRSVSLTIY
T1 sequence (Q96SW2 whole entry): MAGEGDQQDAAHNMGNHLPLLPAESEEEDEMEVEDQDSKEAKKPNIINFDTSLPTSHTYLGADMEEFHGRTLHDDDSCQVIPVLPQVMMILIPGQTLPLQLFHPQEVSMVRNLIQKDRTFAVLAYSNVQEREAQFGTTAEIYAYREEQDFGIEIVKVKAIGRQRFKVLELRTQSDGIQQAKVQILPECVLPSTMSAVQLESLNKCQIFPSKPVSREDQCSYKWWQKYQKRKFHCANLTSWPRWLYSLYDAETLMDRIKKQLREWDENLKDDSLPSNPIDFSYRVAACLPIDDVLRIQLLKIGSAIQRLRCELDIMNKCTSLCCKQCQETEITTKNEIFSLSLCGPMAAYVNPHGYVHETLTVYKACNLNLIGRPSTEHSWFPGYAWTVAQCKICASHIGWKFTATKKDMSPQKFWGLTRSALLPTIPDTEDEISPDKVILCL
T1 sequence (Q16531 whole entry partner): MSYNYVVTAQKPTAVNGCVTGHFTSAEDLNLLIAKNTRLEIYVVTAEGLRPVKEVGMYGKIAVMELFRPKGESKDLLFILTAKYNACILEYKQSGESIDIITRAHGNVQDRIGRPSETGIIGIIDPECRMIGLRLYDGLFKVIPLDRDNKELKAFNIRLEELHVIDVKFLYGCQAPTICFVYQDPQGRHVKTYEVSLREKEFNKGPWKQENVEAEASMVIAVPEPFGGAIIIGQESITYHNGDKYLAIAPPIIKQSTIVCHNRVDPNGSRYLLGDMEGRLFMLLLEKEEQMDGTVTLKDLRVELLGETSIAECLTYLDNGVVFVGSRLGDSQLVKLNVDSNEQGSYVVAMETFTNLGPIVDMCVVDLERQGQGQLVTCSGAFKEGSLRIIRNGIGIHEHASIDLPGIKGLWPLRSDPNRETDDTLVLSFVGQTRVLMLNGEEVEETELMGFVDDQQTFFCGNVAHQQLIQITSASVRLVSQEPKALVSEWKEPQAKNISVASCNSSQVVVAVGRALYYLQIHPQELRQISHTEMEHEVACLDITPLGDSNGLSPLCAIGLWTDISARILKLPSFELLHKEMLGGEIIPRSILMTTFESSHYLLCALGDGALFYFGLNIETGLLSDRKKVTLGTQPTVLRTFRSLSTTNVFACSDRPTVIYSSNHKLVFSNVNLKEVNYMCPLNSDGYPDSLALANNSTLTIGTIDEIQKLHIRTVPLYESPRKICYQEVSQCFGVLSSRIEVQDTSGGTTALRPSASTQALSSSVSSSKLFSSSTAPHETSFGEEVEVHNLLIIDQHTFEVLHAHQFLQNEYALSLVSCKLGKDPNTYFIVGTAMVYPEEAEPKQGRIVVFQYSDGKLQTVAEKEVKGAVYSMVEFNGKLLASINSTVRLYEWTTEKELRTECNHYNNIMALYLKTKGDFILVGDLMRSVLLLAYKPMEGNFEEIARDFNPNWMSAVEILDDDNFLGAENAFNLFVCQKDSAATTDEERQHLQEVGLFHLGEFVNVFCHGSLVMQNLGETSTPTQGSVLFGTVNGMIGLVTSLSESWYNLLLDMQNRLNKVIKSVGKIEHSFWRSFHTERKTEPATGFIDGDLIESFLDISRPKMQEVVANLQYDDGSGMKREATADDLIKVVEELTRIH
In short: (§1)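 Immunoblot densitometry quantifies target loss in hPBMCs after a 24 h compound exposure (50 nM, 500 nM). Percent remaining is normalised band intensity; DC50 is the concentration giving half the DMSO-control band grayscale.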

IKZF1 = target: T2, IKZF1 (Homo sapiens, UniProt Q13422+Q96SW2); assay: Western blot degradation of IKZF1 in hPBMCs (24 h)
T2 construct: The supernatant was aspirated as the extracted total cell protein; endogenous in cells; host or cells: human peripheral blood mononuclear cells (hPBMCs)
T2 sequence (Q13422 whole entry): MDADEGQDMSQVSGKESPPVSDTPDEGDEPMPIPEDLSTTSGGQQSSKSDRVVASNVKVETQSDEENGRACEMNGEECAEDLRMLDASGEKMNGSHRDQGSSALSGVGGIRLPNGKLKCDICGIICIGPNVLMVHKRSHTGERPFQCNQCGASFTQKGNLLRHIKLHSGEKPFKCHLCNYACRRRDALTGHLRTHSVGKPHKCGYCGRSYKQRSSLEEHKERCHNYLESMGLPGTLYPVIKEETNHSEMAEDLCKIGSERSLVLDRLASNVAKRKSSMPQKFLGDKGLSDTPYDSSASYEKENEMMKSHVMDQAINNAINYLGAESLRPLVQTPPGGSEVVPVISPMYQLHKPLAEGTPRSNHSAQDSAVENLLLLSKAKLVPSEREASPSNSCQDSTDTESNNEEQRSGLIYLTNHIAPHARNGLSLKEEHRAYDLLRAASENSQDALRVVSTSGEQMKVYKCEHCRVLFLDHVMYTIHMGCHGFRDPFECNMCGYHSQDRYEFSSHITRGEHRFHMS
T2 sequence (Q96SW2 whole entry): as the sequence (Q96SW2 whole entry) above
T2 sequence (Q16531 whole entry partner): as the sequence (Q16531 whole entry partner) above
In short: as §1

IKZF2 = target: T3, IKZF2 (Homo sapiens, UniProt Q96SW2+Q9UKS7); assay: Western blot degradation of IKZF2 in hPBMCs (24 h)
T3 construct: The supernatant was aspirated as the extracted total cell protein; endogenous in cells; host or cells: human peripheral blood mononuclear cells (hPBMCs)
T3 sequence (Q9UKS7 whole entry): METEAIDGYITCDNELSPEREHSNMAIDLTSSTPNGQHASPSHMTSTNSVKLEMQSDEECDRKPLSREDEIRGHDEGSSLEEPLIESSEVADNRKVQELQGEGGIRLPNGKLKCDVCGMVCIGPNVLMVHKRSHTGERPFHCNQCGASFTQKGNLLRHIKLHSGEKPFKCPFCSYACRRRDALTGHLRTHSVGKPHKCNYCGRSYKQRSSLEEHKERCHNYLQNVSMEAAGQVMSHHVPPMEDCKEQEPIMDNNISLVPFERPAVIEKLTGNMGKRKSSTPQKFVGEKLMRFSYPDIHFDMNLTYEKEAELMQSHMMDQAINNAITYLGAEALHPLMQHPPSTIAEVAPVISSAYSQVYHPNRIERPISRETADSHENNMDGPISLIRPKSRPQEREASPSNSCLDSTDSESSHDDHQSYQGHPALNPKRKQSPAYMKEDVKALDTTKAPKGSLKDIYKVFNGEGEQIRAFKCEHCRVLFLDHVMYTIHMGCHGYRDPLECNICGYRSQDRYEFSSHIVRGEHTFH
T3 sequence (Q96SW2 whole entry): as the sequence (Q96SW2 whole entry) above
T3 sequence (Q16531 whole entry partner): as the sequence (Q16531 whole entry partner) above
In short: as §1

IKZF3 = target: T4, IKZF3 (Homo sapiens, UniProt Q96SW2+Q9UKT9); assay: Western blot degradation of IKZF3 in hPBMCs (24 h)
T4 construct: The supernatant was aspirated as the extracted total cell protein; endogenous in cells; host or cells: human peripheral blood mononuclear cells (hPBMCs)
T4 sequence (Q9UKT9 whole entry): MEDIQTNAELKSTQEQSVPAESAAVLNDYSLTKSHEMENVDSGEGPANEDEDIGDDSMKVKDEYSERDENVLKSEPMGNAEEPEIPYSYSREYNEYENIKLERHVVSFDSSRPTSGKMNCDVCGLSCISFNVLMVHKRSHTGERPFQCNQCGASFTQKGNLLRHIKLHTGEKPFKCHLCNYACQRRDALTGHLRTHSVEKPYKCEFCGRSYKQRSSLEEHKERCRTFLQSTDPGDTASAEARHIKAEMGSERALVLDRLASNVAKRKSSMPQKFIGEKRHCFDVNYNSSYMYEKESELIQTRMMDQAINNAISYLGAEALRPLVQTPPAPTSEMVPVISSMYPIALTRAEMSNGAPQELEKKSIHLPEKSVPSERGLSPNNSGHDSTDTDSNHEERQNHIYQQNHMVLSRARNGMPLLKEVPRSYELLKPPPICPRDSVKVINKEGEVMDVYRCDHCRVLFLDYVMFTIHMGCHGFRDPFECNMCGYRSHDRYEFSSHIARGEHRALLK
T4 sequence (Q96SW2 whole entry): as the sequence (Q96SW2 whole entry) above
T4 sequence (Q16531 whole entry partner): as the sequence (Q16531 whole entry partner) above
In short: as §1

CK1α = target: T5, CK1α (Homo sapiens, UniProt P48729+Q96SW2); assay: Western blot degradation of CK1α in hPBMCs (24 h)
T5 construct: The supernatant was aspirated as the extracted total cell protein; endogenous in cells; host or cells: human peripheral blood mononuclear cells (hPBMCs)
In short: as §1

GSPT1 = target: T6, GSPT1 (Homo sapiens, UniProt P15170+Q96SW2); assay: Western blot degradation of GSPT1 in hPBMCs (24 h)
T6 construct: The supernatant was aspirated as the extracted total cell protein; endogenous in cells; host or cells: human peripheral blood mononuclear cells (hPBMCs)
T6 sequence (P15170 whole entry): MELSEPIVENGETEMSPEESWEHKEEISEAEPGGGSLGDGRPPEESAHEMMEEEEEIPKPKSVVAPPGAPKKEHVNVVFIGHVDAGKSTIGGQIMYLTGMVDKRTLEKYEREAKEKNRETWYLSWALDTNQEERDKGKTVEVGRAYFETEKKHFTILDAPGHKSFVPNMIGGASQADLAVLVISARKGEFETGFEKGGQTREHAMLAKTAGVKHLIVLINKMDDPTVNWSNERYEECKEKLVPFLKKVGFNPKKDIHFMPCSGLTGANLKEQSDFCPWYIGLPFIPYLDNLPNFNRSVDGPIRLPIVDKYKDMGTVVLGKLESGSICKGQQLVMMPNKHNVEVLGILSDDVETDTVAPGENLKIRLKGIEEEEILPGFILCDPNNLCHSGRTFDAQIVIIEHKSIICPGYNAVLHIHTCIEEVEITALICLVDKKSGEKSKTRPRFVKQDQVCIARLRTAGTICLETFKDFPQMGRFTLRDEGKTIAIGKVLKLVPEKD
T6 sequence (Q96SW2 whole entry): as the sequence (Q96SW2 whole entry) above
T6 sequence (Q16531 whole entry partner): as the sequence (Q16531 whole entry partner) above
In short: as §1

| SMILES | WEE1 substrate protein remaining % (WEE1) | IKZF1 substrate protein remaining % (IKZF1) | IKZF2 substrate protein remaining % (IKZF2) | IKZF3 substrate protein remaining % (IKZF3) | CK1α substrate protein remaining % (CK1α) | GSPT1 substrate protein remaining % (GSPT1) |
| --- | --- | --- | --- | --- | --- | --- |
| CC1(C)CC(c2ccc(Cl)cc2)=C(CN2CCN(Cc3ccc4c(c3)CN(N3CCC(=O)NC3=O)C4=O)CC2)CO1 [GT-07332, 1-(5-((4-((4-(4-chlorophenyl)-6,6-dimethyl-5,6-dihydro-2H-pyran-3-yl)methyl)piperazin-1-yl)methyl)-1-oxoisoindolin-2-yl)dihydropyrimidine-2,4(1H,3H)-dione] | A (0% ≤ substrate protein remaining % ≤80%) | A (0% ≤ substrate protein remaining % ≤80%) | B (80%< substrate protein remaining % ≤100%) | A (0% ≤ substrate protein remaining % ≤80%) | B (80%< substrate protein remaining % ≤100%) | A (0% ≤ substrate protein remaining % ≤80%) |
| CC1(C)CCC(CN2CC3CCC(C2)N3Cc2ccc3c(c2)C(=O)N(N2CCC(=O)NC2=O)C3=O)=C(c2ccc(Cl)cc2)C1 [GT-07333, 5-((3-((4′-chloro-5,5-dimethyl-3,4,5,6-tetrahydro-[1,1′-biphenyl]-2-yl)methyl)-3,8-diazabicyclo[3.2.1]octan-8-yl)methyl)-2-(2,4-dioxotetrahydropyrimidin-1(2H)-yl)isoindoline-1,3-dione] | B (80%< substrate protein remaining % ≤100%) | B (80%< substrate protein remaining % ≤100%) | B (80%< substrate protein remaining % ≤100%) | B (80%< substrate protein remaining % ≤100%) | B (80%< substrate protein remaining % ≤100%) | A (0% ≤ substrate protein remaining % ≤80%) |
| CC1(C)CCC(CN2CC3CC2CN3Cc2ccc3c(c2)C(=O)N(N2CCC(=O)NC2=O)C3=O)=C(c2ccc(Cl)cc2)C1 (stereo not drawn) [GT-07334, 5-((5-((4′-chloro-5,5-dimethyl-3,4,5,6-tetrahydro-[1,1′-biphenyl]-2-yl)methyl)-2,5-diazabicyclo[2.2.1]heptan-2-yl)methyl)-2-(2,4-dioxotetrahydropyrimidin-1(2H)-yl)isoindoline-1,3-dione] | A (0% ≤ substrate protein remaining % ≤80%) | B (80%< substrate protein remaining % ≤100%) | B (80%< substrate protein remaining % ≤100%) | B (80%< substrate protein remaining % ≤100%) | A (0% ≤ substrate protein remaining % ≤80%) | B (80%< substrate protein remaining % ≤100%) |
| Cc1cscc1C1CCN(Cc2ccc3c(c2)CN(N2CCC(=O)NC2=O)C3=O)CC1 [GT-07372, 1-(5-((4-(4-methylthiophen-3-yl)piperidin-1-yl)methyl)-1-oxoisoindolin-2-yl)dihydropyrimidine-2,4(1H,3H)-dione] | B (80%< substrate protein remaining % ≤100%) | B (80%< substrate protein remaining % ≤100%) | B (80%< substrate protein remaining % ≤100%) | A (0% ≤ substrate protein remaining % ≤80%) | B (80%< substrate protein remaining % ≤100%) | A (0% ≤ substrate protein remaining % ≤80%) |
| Cc1cc(C2CCN(Cc3ccc4c(c3)CN(N3CCC(=O)NC3=O)C4=O)CC2)cs1 [GT-07373, 1-(5-((4-(5-methylthiophen-3-yl)piperidin-1-yl)methyl)-1-oxoisoindolin-2-yl)dihydropyrimidine-2,4(1H,3H)-dione] | B (80%< substrate protein remaining % ≤100%) | B (80%< substrate protein remaining % ≤100%) | B (80%< substrate protein remaining % ≤100%) | A (0% ≤ substrate protein remaining % ≤80%) | B (80%< substrate protein remaining % ≤100%) | A (0% ≤ substrate protein remaining % ≤80%) |
| O=C1CCN(N2Cc3cc(CN4CCC(c5ccco5)CC4)ccc3C2=O)C(=O)N1 [GT-07374, 1-(5-((4-(furan-2-y1)piperidin-1-yl)methyl)-1-oxoisoindolin-2-yl)dihydropyrimidine-2,4(1H,3H)-dione] | B (80%< substrate protein remaining % ≤100%) | B (80%< substrate protein remaining % ≤100%) | B (80%< substrate protein remaining % ≤100%) | B (80%< substrate protein remaining % ≤100%) | A (0% ≤ substrate protein remaining % ≤80%) | A (0% ≤ substrate protein remaining % ≤80%) |
| O=C1CCN(N2Cc3cc(CN4CCC(c5ccoc5)CC4)ccc3C2=O)C(=O)N1 [GT-07375, 1-(5-((4-(furan-3-yl)piperidin-1-yl)methyl)-1-oxoisoindolin-2-yl)dihydropyrimidine-2,4(1H,3H)-dione] | B (80%< substrate protein remaining % ≤100%) | B (80%< substrate protein remaining % ≤100%) | B (80%< substrate protein remaining % ≤100%) | B (80%< substrate protein remaining % ≤100%) | A (0% ≤ substrate protein remaining % ≤80%) | A (0% ≤ substrate protein remaining % ≤80%) |
| O=C1CCN(N2Cc3cc(CN4C5CC4CN(C(=O)C4=C(c6ccc(F)cc6)CCCC4)C5)ccc3C2=O)C(=O)N1 [GT-07376, 1-(5-((3-(4′-fluoro-3,4,5,6-tetrahydro-[1,1′-biphenyl]-2-carbonyl)-3,6-diazabicyclo[3.1.1]heptan-6-yl)methyl)-1-oxoisoindolin-2-yl)dihydropyrimidine-2,4(1H,3H)-dione] | A (0% ≤ substrate protein remaining % ≤80%) | B (80%< substrate protein remaining % ≤100%) | B (80%< substrate protein remaining % ≤100%) | B (80%< substrate protein remaining % ≤100%) | B (80%< substrate protein remaining % ≤100%) | B (80%< substrate protein remaining % ≤100%) |
| O=C1CCN(N2C(=O)c3ccc(CN4C5CC4CN(C(=O)C4=C(c6ccc(F)cc6)CCCC4)C5)cc3C2=O)C(=O)N1 [GT-07377, 2-(2,4-dioxotetrahydropyrimidin-1(2H)-yl)-5-((3-(4′-fluoro-3,4,5,6-tetrahydro-[1,1′-biphenyl]-2-carbonyl)-3,6-diazabicyclo[3.1.1]heptan-6-yl)methyl)isoindoline-1,3-dione] | A (0% ≤ substrate protein remaining % ≤80%) | B (80%< substrate protein remaining % ≤100%) | A (0% ≤ substrate protein remaining % ≤80%) | B (80%< substrate protein remaining % ≤100%) | A (0% ≤ substrate protein remaining % ≤80%) | A (0% ≤ substrate protein remaining % ≤80%) |
| O=C1CCN(N2C(=O)c3ccc(CN4CCC(c5ccsc5)CC4)cc3C2=O)C(=O)N1 [GT-07420, 2-(2,4-dioxotetrahydropyrimidin-1(2H)-yl)-5-((4-(thiophen-3-yl)piperidin-1-yl)methyl)isoindoline-1,3-dione] | B (80%< substrate protein remaining % ≤100%) | B (80%< substrate protein remaining % ≤100%) | B (80%< substrate protein remaining % ≤100%) | B (80%< substrate protein remaining % ≤100%) | A (0% ≤ substrate protein remaining % ≤80%) | A (0% ≤ substrate protein remaining % ≤80%) |
| Cc1cc(C2CCN(Cc3ccc4c(c3)C(=O)N(N3CCC(=O)NC3=O)C4=O)CC2)cs1 [GT-07421, 2-(2,4-dioxotetrahydropyrimidin-1(2H)-yl)-5-((4-(5-methylthiophen-3-yl)piperidin-1-yl)methyl)isoindoline-1,3-dione] | B (80%< substrate protein remaining % ≤100%) | B (80%< substrate protein remaining % ≤100%) | B (80%< substrate protein remaining % ≤100%) | B (80%< substrate protein remaining % ≤100%) | A (0% ≤ substrate protein remaining % ≤80%) | A (0% ≤ substrate protein remaining % ≤80%) |
| O=C1CCN(N2C(=O)c3ccc(CN4CCC(c5ccoc5)CC4)cc3C2=O)C(=O)N1 [GT-07422, 2-(2,4-dioxotetrahydropyrimidin-1(2H)-yl)-5-((4-(furan-3-yl)piperidin-1-yl)methyl)isoindoline-1,3-dione] | B (80%< substrate protein remaining % ≤100%) | B (80%< substrate protein remaining % ≤100%) | B (80%< substrate protein remaining % ≤100%) | B (80%< substrate protein remaining % ≤100%) | A (0% ≤ substrate protein remaining % ≤80%) | A (0% ≤ substrate protein remaining % ≤80%) |
